Laboratory results from patent US20100234372A1, “SUBSTITUTED 2-MERCAPTOQUINOLINE-3-CARBOXAMIDES AS KCNQ2/3 MODULATORS” (GRUNENTHAL GMBH, priority 2009, published 2010).
pEC50: −log10 of the molar value.

Molecular target: T1, KCNQ2/3 channels (Homo sapiens, UniProt O43525+O43526)
T1 construct: expressed in transfected cells; host or cells: CHO-K1 cells
Assay: Fluorescence assay using a voltage-sensitive dye (fluorimetry)
Type: cell-based
Conditions: for pEC50: CHO-K1 cells expressing KCNQ2/3 channels; for Emax at 1 µM: 50 μM retigabine = 100%, CHO-K1 cells expressing KCNQ2/3, read-out: Fluorimetry % efficacy at 1 μM (50 μM retigabine = 100%)
Description: […] CHO-K1 cells expressing KCNQ2/3 channels are cultivated adherently at 37° C., 5% CO2 and 95% humidity in cell culture bottles (e.g. 80 cm^2 TC flasks, Nunc) with DMEM-high glucose (Sigma Aldrich, D7777) including 10% FCS (PAN Biotech, e.g. 3302-P270521) or alternatively MEM Alpha Medium (1×, liquid, Invitrogen, #22571), 10% foetal calf serum (FCS) (Invitrogen, #10270-106, heat-inactivated) and the necessary selection antibiotics.
Before being seeded out for the measurements, the cells are washed with a 1×DPBS buffer without Ca^2+/Mg^2+ (e.g. Invitrogen, #14190-094) and detached from the bottom of the culture vessel by means of Accutase (PAA Laboratories, #L11-007) (incubation with Accutase for 15 min at 37° C.). The cell count then present is determined using a CASY™ cell counter (TCC model, Scharfe System) in order subsequently to apply 20,000 to 30,000 cells/well/100 μl of the described nutrient medium, depending on density optimisation for the individual cell line, to 96-well measuring plates of the Corning™ CeIIBIND™ type (flat clear-bottom black polystyrene microplates, #3340). Incubation is then carried out for one hour at room temperature, without gassing or adjusting the humidity, followed by incubation for 24 hours at 37° C., 5% CO2 and 95% humidity.
The voltage-sensitive fluorescent dye from the Membrane Potential Assay Kit (Red™ bulk format part R8123 for FLIPR, MDS Analytical Technologies™) is prepared by dissolving the contents of a vessel of Membrane Potential Assay Kit Red Component A in 200 ml of extracellular buffer (ES buffer, 120 mM NaCl, 1 mM KCl, 10 mM HEPES, 2 mM CaCl2, 2 mM MgCl2, 10 mM glucose; pH 7.4). After removal of the nutrient medium, the cells are washed with 200 μl of ES buffer, then covered with a layer of 100 μl of the dye solution prepared above and incubated for 45 min at room temperature with exclusion of light.
The fluorescence measurements are carried out with a BMG Labtech FLUOstar™, BMG Labtech NOVOstar™ or BMG Labtech POLARstar™ instrument (525 nm excitation, 560 nm emission, bottom-read mode). After incubation of the dye, 50 μl of the substances to be tested in the desired concentrations, or 50 μl of ES buffer for control purposes, are introduced into separate cavities of the measuring plate and incubated for 30 min at room temperature whilst being shielded from light. The fluorescence intensity of the dye is then measured for 5 min and the fluorescence value F1 of each well is thus determined at a given, constant time. 15 μl of a […] KCl solution ([…]) are then added to each well. The change in fluorescence is subsequently measured until all relevant measured values have been obtained (mainly 5-30 min). At a given time after KCl application, a fluorescence value F2 is determined, in this case at the time of the fluorescence peak.
For calculation, the fluorescence intensity F2 is compared with the fluorescence intensity F1, and the agonistic activity of the target compound on the potassium channel is determined therefrom. F2 and F1 are calculated as follows: […]
is determined by adding to the reaction batch only the buffer solution instead of the substance to be tested, determining the value F1K of the fluorescence intensity, adding the potassium ions as described above and measuring a value F2K of the fluorescence intensity. Then F2K and F1K are calculated as follows: […]
Calculations of EC50 values are carried out with the aid of Prism v4.0 software (GraphPad Software™).

pEC50 | Emax at 1 µM | Compound
6.84 | 168% | O=C(NCc1cccs1)c1cc2ccccc2nc1SCCCc1ccccc1 [compound 4]
5.58 | 98% | O=C(NCc1cccs1)c1cc2ccccc2nc1SCCS(=O)(=O)c1ccccc1 [compound 5, 2-[2-(Phenylsulfonyl)ethylthio]-N-(2-thienyl-methyl)-3-quinoline carboxamide]
5.91 | 111% | O=C(NCc1cccs1)c1cc2ccccc2nc1SCCCc1ccc(F)cc1 [compound 6]
– | 46% | O=C(NCc1cccs1)c1cc2cc(C(F)(F)F)ccc2nc1SCCS(=O)(=O)c1ccccc1 [compound 8, 2-[2-(Phenylsulfonyl)ethylthio]-N-(2-thienyl-methyl)-6-(trifluoromethyl)-3-quinoline carboxamide]
– | 26% | O=C(NCc1cccs1)c1cc2ccc(C(F)(F)F)cc2nc1SCCS(=O)(=O)c1ccccc1 [compound 9]
– | 9% | O=C(NCc1cccs1)c1cc2c(C(F)(F)F)cccc2nc1SCCS(=O)(=O)c1ccccc1 [compound 10]
– | 41% | CCCCCSc1nc2ccc(C(F)(F)F)cc2cc1C(=O)NCc1cccs1 [compound 11, 2-(Pentylthio)-N-(2-thienylmethyl)-6-(trifluoromethyl)-3-quinoline carboxamide]
6.39 | 155% | CCSc1nc2ccc(C(F)(F)F)cc2cc1C(=O)NCc1cccs1 [compound 12]
6.00 | 136% | O=C(NCc1cccs1)c1cc2ccccc2nc1SCCS(=O)(=O)c1cccc(C(F)(F)F)c1 [compound 13, N-(2-Thienylmethyl)-2-[2-[3-(trifluoromethyl)-phenyl]sulfonylethylthio]-3-quinoline carboxamide]
6.11 | 145% | CCCCCSc1nc2cc(C(F)(F)F)ccc2cc1C(=O)NCc1cccs1 [compound 15]
7.11 | 164% | O=C(NCc1cccs1)c1cc2ccccc2nc1SCCS(=O)(=O)c1ccc(F)cc1 [compound 16]
– | 77% | Cc1ccc(S(=O)(=O)CCSc2nc3ccccc3cc2C(=O)NCc2cccs2)cc1 [compound 17]
– | 72% | Cc1ccc(SCCSc2nc3ccccc3cc2C(=O)NCc2cccs2)cc1 [compound 18]
– | 64% | Cc1ccc(CCCSc2nc3ccccc3cc2C(=O)NCc2cccs2)cc1 [compound 20]
6.92 | 30% | O=C(NCc1cccs1)c1cc2ccccc2nc1SCCSc1ccccc1 [compound 21]
– | 14% | CC(C)(C)CCNC(=O)c1cc2ccccc2nc1SCCS(=O)(=O)c1ccccc1 [compound 23]
– | 27% | O=C(NCc1cccs1)c1cc2ccccc2nc1SCCSc1ccc(F)cc1 [compound 24]

Second part, the compound before the results:

Compound | pEC50 | Emax at 1 µM
CCCCCSc1nc2ccccc2cc1C(=O)NCc1cccs1 [compound 1, 2-(Pentylthio)-N-(2-thienylmethyl)-3-quinoline carboxamide] | 6.13 | 143%
COC(=O)CCSc1nc2ccccc2cc1C(=O)NCc1cccs1 [compound 2, 3-{[3-[Oxo-(2-thienylmethylamino)methyl]-2-quinolyl]thio}propanoic acid methyl ester] | – | 26%
O=C(NCc1cccs1)c1cc2ccccc2nc1SCCCC1CCCCC1 [compound 3] | 5.71 | 77%
CCSc1nc2ccccc2cc1C(=O)NCc1cccs1 [compound 7, 2-(Ethylthio)-N-(2-thienylmethyl)-3-quinoline carboxamide] | 5.87 | –
O=C(NCC1CCCCC1)c1cc2ccccc2nc1SCCS(=O)(=O)c1ccccc1 [compound 19] | 6.78 | 71%
O=C(NCCC1CCCCC1)c1cc2ccccc2nc1SCCS(=O)(=O)c1ccccc1 [compound 22] | – | 15%
CCSc1nc2cc(C(F)(F)F)ccc2c(C)c1C(=O)NCCC(C)(C)C [compound 25] | – | 8%
CCSc1nc2cc(C(F)(F)F)ccc2c(C)c1C(=O)NCC(C)(C)C [compound 28] | – | 47%
CCSc1nc2cc(C(F)(F)F)ccc2c(C)c1C(=O)NCC1CCCCCC1 [compound 29] | 6.44 | 86%
CCSc1nc2cc(C(F)(F)F)ccc2c(C)c1C(=O)NCc1ccc(F)c(F)c1 [compound 31] | 6.84 | 159%
CCSc1nc2cc(C(F)(F)F)ccc2c(C)c1C(=O)NCc1ccc(F)cc1F [compound 32] | 7.23 | 70%
CCSc1nc2cc(C(F)(F)F)ccc2c(C)c1C(=O)NCc1cc(F)c(F)c(F)c1 [compound 33] | 6.85 | 162%
CCSc1nc2cc(C(F)(F)F)ccc2c(C)c1C(=O)NCc1cc(F)c(F)cc1F [compound 34] | 7.01 | 72%
CCSc1nc2cc(C(F)(F)F)ccc2c(C)c1C(=O)NCc1ccncc1 [compound 35] | 5.58 | 142%
CCSc1nc2cc(C(F)(F)F)ccc2c(C)c1C(=O)NCc1ccc(C(C)(C)C)cc1 [compound 36] | 6.87 | 93%
CCSc1nc2cc(C(F)(F)F)ccc2c(C)c1C(=O)NCc1cccc(C(F)(F)F)c1 [compound 38] | 7.12 | 142%

Compound | pEC50 | Emax at 1 µM
CCSc1nc2cc(C(F)(F)F)ccc2c(C)c1C(=O)NCCc1ccccc1 [compound 39] | 6.33 | 48%
CCSc1nc2cc(C(F)(F)F)ccc2c(C)c1C(=O)NCCCc1ccccc1 [compound 40] | 6.71 | 152%
CCSc1nc2cc(C(F)(F)F)ccc2c(C)c1C(=O)NCc1ccccn1 [compound 41] | 5.96 | 121%
CCSc1nc2cc(C(F)(F)F)ccc2c(C)c1C(=O)NCc1ccc2ccccc2c1 [compound 43] | 6.80 | 77%
CCSc1nc2cc(C(F)(F)F)ccc2c(C)c1C(=O)NCc1nccs1 [compound 44] | 6.23 | 169%
CCSc1nc2cc(C(F)(F)F)ccc2c(C)c1C(=O)NCc1nnco1 [compound 45] | – | 23%
CCCSc1nc2cc(C(F)(F)F)ccc2c(C)c1C(=O)NCc1cccc(F)c1 [compound 46] | 6.85 | 155%
Cc1c(C(=O)NCc2cccc(F)c2)c(SC(C)C)nc2cc(C(F)(F)F)ccc12 [compound 47] | 7.14 | 152%
Cc1c(C(=O)NCc2cccc(F)c2)c(SC2CCCC2)nc2cc(C(F)(F)F)ccc12 [compound 48] | 7.25 | 133%
CCCCSc1nc2cc(C(F)(F)F)ccc2c(C)c1C(=O)NCc1cccc(F)c1 [compound 49] | 7.13 | 151%
CCCCCSc1nc2cc(C(F)(F)F)ccc2c(C)c1C(=O)NCc1cccc(F)c1 [compound 50] | 7.21 | 150%
CCC(C)Sc1nc2cc(C(F)(F)F)ccc2c(C)c1C(=O)NCc1cccc(F)c1 (centres unmarked) [compound 51] | 7.43 | 158%
Cc1c(C(=O)NCc2cccc(F)c2)c(SC2CCCCC2)nc2cc(C(F)(F)F)ccc12 [compound 52] | 7.19 | 102%
CCSc1nc2cc(C(F)(F)F)ccc2c(C)c1C(=O)NCCC1CCCC1 [compound 53] | 6.59 | 73%
CCSc1nc2cc(C(F)(F)F)ccc2c(C)c1C(=O)NCCCC1CCCC1 [compound 54] | 6.79 | 229%
CCSc1nc2cc(C(F)(F)F)ccc2c(C)c1C(=O)NCc1ccc(C(F)(F)F)cc1 [compound 55] | 6.83 | 167%
